Measured values taken from patent US12686873B2, “Plants having increased tolerance to herbicides” (priority 2012, dated 2026).
Several values for one entry are separate records, joined by “and”; a condition that tells them apart may be missing. Equal entries are not always repeated.

Columns and labels:
Assay in all cases: biochemical
[1] = molecular target: wild type and amino acid substituted PPO enzyme (Amaranthus tuberculatus, UniProt Q0NZW5)
[2] = molecular target: wild type and amino acid substituted PPO enzyme (Amaranthus tuberculatus, UniProt Q0NZW9, F204I/F420A/F457M/L400A); settings: IC50 (M)
[3] = molecular target: wild type and amino acid substituted PPO enzyme (Amaranthus tuberculatus, UniProt Q0NZW9, F204I/F420V); settings: IC50 (M)
[4] = molecular target: wild type and amino acid substituted PPO enzyme (Amaranthus tuberculatus, UniProt Q0NZW9, F204I/F420V/F457M); settings: IC50 (M)
[5] = molecular target: wild type and amino acid substituted PPO enzyme (Amaranthus tuberculatus, UniProt Q0NZW9, F204I/F420V/F457M/L400A/R128A); settings: IC50 (M)
[6] = molecular target: wild type and amino acid substituted PPO enzyme (Amaranthus tuberculatus, UniProt Q0NZW9, F204I/F420V/F457M/L400A/T208S); settings: IC50 (M)
[7] = molecular target: wild type and amino acid substituted PPO enzyme (Amaranthus tuberculatus, UniProt Q0NZW9, F204I/F420V/F457M/R128A); settings: IC50 (M)
[8] = molecular target: wild type and amino acid substituted PPO enzyme (Amaranthus tuberculatus, UniProt Q0NZW9, F204I/F420V/F457M/T208S); settings: IC50 (M)
[9] = molecular target: wild type and amino acid substituted PPO enzyme (Amaranthus tuberculatus, UniProt Q0NZW9, F204I/F420V/L400A); settings: IC50 (M)
[10] = molecular target: wild type and amino acid substituted PPO enzyme (Amaranthus tuberculatus, UniProt Q0NZW9, F204I/F420V/T208S); settings: IC50 (M)
[11] = molecular target: wild type and amino acid substituted PPO enzyme (Amaranthus tuberculatus, UniProt Q0NZW9, F204I/F457M); settings: IC50 (M)
Chain of wild type and amino acid substituted PPO enzyme (Amaranthus tuberculatus, UniProt Q0NZW9, F204I/F457M) (Q0NZW9 1-534 F204I/F457M): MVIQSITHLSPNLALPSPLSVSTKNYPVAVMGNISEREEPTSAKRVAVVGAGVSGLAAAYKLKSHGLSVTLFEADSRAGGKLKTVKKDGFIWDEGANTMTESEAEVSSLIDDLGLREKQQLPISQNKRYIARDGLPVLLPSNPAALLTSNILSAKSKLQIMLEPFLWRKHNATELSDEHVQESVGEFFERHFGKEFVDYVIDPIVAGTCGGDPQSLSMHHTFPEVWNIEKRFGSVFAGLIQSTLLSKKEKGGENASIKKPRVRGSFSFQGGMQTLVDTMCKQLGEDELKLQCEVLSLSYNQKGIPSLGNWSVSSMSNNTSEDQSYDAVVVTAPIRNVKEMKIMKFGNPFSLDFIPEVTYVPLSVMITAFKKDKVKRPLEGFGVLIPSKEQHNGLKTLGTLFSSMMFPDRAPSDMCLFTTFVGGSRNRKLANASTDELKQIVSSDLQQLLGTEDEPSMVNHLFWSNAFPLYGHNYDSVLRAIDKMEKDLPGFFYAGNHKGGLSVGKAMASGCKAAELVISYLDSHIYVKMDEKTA

[12] = molecular target: wild type and amino acid substituted PPO enzyme (Amaranthus tuberculatus, UniProt Q0NZW9, F204I/F457M/L400A/T208S); settings: IC50 (M)
[13] = molecular target: wild type and amino acid substituted PPO enzyme (Amaranthus tuberculatus, UniProt Q0NZW9, F204I/F457M/T208S); settings: IC50 (M)
Chain of wild type and amino acid substituted PPO enzyme (Amaranthus tuberculatus, UniProt Q0NZW9, F204I/F457M/T208S) (Q0NZW9 1-534 F204I/T208S/F457M): as the sequence (Q0NZW9 1-534 F204I/F457M) above, with T208S counted along it

[14] = molecular target: wild type and amino acid substituted PPO enzyme (Amaranthus tuberculatus, UniProt Q0NZW9, F204I/L397D/L400A/T208S); settings: IC50 (M)
[15] = molecular target: wild type and amino acid substituted PPO enzyme (Amaranthus tuberculatus, UniProt Q0NZW9, F204I/L397D/T208S); settings: IC50 (M)
[16] = molecular target: wild type and amino acid substituted PPO enzyme (Amaranthus tuberculatus, UniProt Q0NZW9, F204I/L400A); settings: IC50 (M)
[17] = molecular target: wild type and amino acid substituted PPO enzyme (Amaranthus tuberculatus, UniProt Q0NZW9, F204I/L400A/T208S); settings: IC50 (M)
[18] = molecular target: wild type and amino acid substituted PPO enzyme (Amaranthus tuberculatus, UniProt Q0NZW9, F204I/T208S); settings: IC50 (M)
Chain of wild type and amino acid substituted PPO enzyme (Amaranthus tuberculatus, UniProt Q0NZW9, F204I/T208S) (Q0NZW9 1-534 F204I/T208S): as the sequence (Q0NZW9 1-534 F204I/F457M) above, with T208S, M457F counted along it

[19] = molecular target: wild type and amino acid substituted PPO enzyme (Amaranthus tuberculatus, UniProt Q0NZW9, F420M/L397A); settings: IC50 (M)
[20] = molecular target: wild type and amino acid substituted PPO enzyme (Amaranthus tuberculatus, UniProt Q0NZW9, F420M/L397C); settings: IC50 (M)
[21] = molecular target: wild type and amino acid substituted PPO enzyme (Amaranthus tuberculatus, UniProt Q0NZW9, F420M/L397D); settings: IC50 (M)
Chain of wild type and amino acid substituted PPO enzyme (Amaranthus tuberculatus, UniProt Q0NZW9, F420M/L397D) (Q0NZW9 1-534 L397D/F420M): as the sequence (Q0NZW9 1-534 F204I/F457M) above, with I204F, L397D, F420M, M457F counted along it

[22] = molecular target: wild type and amino acid substituted PPO enzyme (Amaranthus tuberculatus, UniProt Q0NZW9, F420M/L397S); settings: IC50 (M)
[23] = molecular target: wild type and amino acid substituted PPO enzyme (Amaranthus tuberculatus, UniProt Q0NZW9, F420M/L397V); settings: IC50 (M)
[24] = molecular target: wild type and amino acid substituted PPO enzyme (Amaranthus tuberculatus, UniProt Q0NZW9, F420V/F457M); settings: IC50 (M)
[25] = molecular target: wild type and amino acid substituted PPO enzyme (Amaranthus tuberculatus, UniProt Q0NZW9, F420V/F457M/T208S); settings: IC50 (M)
[26] = molecular target: wild type and amino acid substituted PPO enzyme (Amaranthus tuberculatus, UniProt Q0NZW9, F420V/L397C); settings: IC50 (M)
[27] = molecular target: wild type and amino acid substituted PPO enzyme (Amaranthus tuberculatus, UniProt Q0NZW9, F420V/L397Q); settings: IC50 (M)
Chain of wild type and amino acid substituted PPO enzyme (Amaranthus tuberculatus, UniProt Q0NZW9, F420V/L397Q) (Q0NZW9 1-534 L397Q/F420V): as the sequence (Q0NZW9 1-534 F204I/F457M) above, with I204F, L397Q, F420V, M457F counted along it

[28] = molecular target: wild type and amino acid substituted PPO enzyme (Amaranthus tuberculatus, UniProt Q0NZW9, F420V/L397S); settings: IC50 (M)
[29] = molecular target: wild type and amino acid substituted PPO enzyme (Amaranthus tuberculatus, UniProt Q0NZW9, F420V/L397T); settings: IC50 (M)
[30] = molecular target: wild type and amino acid substituted PPO enzyme (Amaranthus tuberculatus, UniProt Q0NZW9, F420V/L397V); settings: IC50 (M)
[31] = molecular target: wild type and amino acid substituted PPO enzyme (Amaranthus tuberculatus, UniProt Q0NZW9, F420V/R128A/T208S); settings: IC50 (M)
[32] = molecular target: wild type and amino acid substituted PPO enzyme (Amaranthus tuberculatus, UniProt Q0NZW9, F420V/T208S); settings: IC50 (M)
Chain of wild type and amino acid substituted PPO enzyme (Amaranthus tuberculatus, UniProt Q0NZW9, F420V/T208S) (Q0NZW9 1-534 T208S/F420V): as the sequence (Q0NZW9 1-534 F204I/F457M) above, with I204F, T208S, F420V, M457F counted along it

[33] = molecular target: wild type and amino acid substituted PPO enzyme (Amaranthus tuberculatus, UniProt Q0NZW9, F457M/L400A); settings: IC50 (M)
[34] = molecular target: wild type and amino acid substituted PPO enzyme (Amaranthus tuberculatus, UniProt Q0NZW9, F457M/L400A/T208S); settings: IC50 (M)
[35] = molecular target: wild type and amino acid substituted PPO enzyme (Amaranthus tuberculatus, UniProt Q0NZW9, F457M/T208S); settings: IC50 (M)
Chain of wild type and amino acid substituted PPO enzyme (Amaranthus tuberculatus, UniProt Q0NZW9, F457M/T208S) (Q0NZW9 1-534 T208S/F457M): as the sequence (Q0NZW9 1-534 F204I/F457M) above, with I204F, T208S counted along it

[36] = molecular target: wild type and amino acid substituted PPO enzyme (Amaranthus tuberculatus, UniProt Q0NZW9, L397D/R128A); settings: IC50 (M)
Chain of wild type and amino acid substituted PPO enzyme (Amaranthus tuberculatus, UniProt Q0NZW9, L397D/R128A) (Q0NZW9 1-534 R128A/L397D): as the sequence (Q0NZW9 1-534 F204I/F457M) above, with R128A, I204F, L397D, M457F counted along it

[37] = molecular target: wild type and amino acid substituted PPO enzyme (Amaranthus tuberculatus, UniProt Q0NZW9, L397D/T208S); settings: IC50 (M)
Chain of wild type and amino acid substituted PPO enzyme (Amaranthus tuberculatus, UniProt Q0NZW9, L397D/T208S) (Q0NZW9 1-534 T208S/L397D): as the sequence (Q0NZW9 1-534 F204I/F457M) above, with I204F, T208S, L397D, M457F counted along it

## C#CCN1C(=O)C(F)(F)Oc2cc(F)c(-n3c(=O)n(C)c(=S)n(C)c3=O)cc21
[1]
  IC50: 2.12 nM
[2]
  IC50: 3.69e-08 M
[3]
  IC50: 4.69e-09 M
[4]
  IC50: 2.1e-09 M
[5]
  IC50: 4.05e-07 M
[6]
  IC50: 9.24e-08 M
[7]
  IC50: 4.63e-08 M
[8]
  IC50: 4.72e-09 M
[9]
  IC50: 8.23e-08 M
[10]
  IC50: 3.87e-09 M
[11]
  IC50: 7.52e-11 M
[12]
  IC50: 2.88e-11 M
[13]
  IC50: 4.21e-11 M and 1.7e-10 M
[14]
  IC50: 2.38e-09 M
[15]
  IC50: 5.52e-11 M
[16]
  IC50: 4.57e-11 M
[17]
  IC50: 2.64e-11 M
[18]
  IC50: 1.29e-10 M
[19]
  IC50: 4.53e-09 M
[20]
  IC50: 1.79e-09 M
[21]
  IC50: 2.95e-08 M
[22]
  IC50: 3.33e-09 M
[23]
  IC50: 1.05e-09 M
[24]
  IC50: 1.02e-09 M
[25]
  IC50: 3.41e-09 M
[26]
  IC50: 5.54e-08 M
[27]
  IC50: 1.01e-07 M
[28]
  IC50: 4.26e-08 M
[29]
  IC50: 1.31e-08 M
[30]
  IC50: 1.21e-08 M
[31]
  IC50: 1.25e-08 M
[32]
  IC50: 2.34e-09 M
[33]
  IC50: 1.35e-11 M
[34]
  IC50: 9.68e-12 M
[35]
  IC50: 1.95e-10 M
[36]
  IC50: 5.9e-09 M
[37]
  IC50: 1.25e-10 M

## CC(C)N(C)S(=O)(=O)NC(=O)c1cc(-n2c(=O)cc(C(F)(F)F)n(C)c2=O)c(F)cc1Cl [saflufenacil]
[1]
  IC50: 1600 nM
[11]
  IC50: 1.89e-11 M
[13]
  IC50: 5.11e-11 M
[18]
  IC50: 5.89e-11 M
[21]
  IC50: > 1e-05 M
[27]
  IC50: > 1e-05 M
[31]
  IC50: > 1e-05 M
[32]
  IC50: 8.48e-07 M
[35]
  IC50: 1.02e-10 M
[36]
  IC50: ≥ 1e-05 M
[37]
  IC50: 4.08e-07 M
